Measurements as given in patent US7956196B2, “1,3-dihydro-benzimidazol-2-ylidene amines as inhibitors of respiratory syncytial virus replication” (Tibotec Pharmaceuticals Ltd., priority 2005, dated 2011).
Structures can show the parent of a compound that is named as a salt. Where two headings read alike, the source gives them in different places.

How the values were obtained:
[1] = system: Respiratory Syncytial Virus; assay: In vitro screening for activity against RSV, automated tetrazolium-based (MTT) colorimetric assay in HeLa cells; format: cell-based; conditions: human respiratory syncytial virus, 168 h, read-out: pIC50 (converted)
From the text: In vitro screening of compounds of formula (I) for activity against RSV. The percent protection against cytopathology caused by viruses (antiviral activity or EC50) achieved by tested compounds and their cytotoxicity (CC50) are both calculated from dose-response curves. The selectivity of the antiviral effect is represented by the selectivity index (SI), calculated by dividing the CC50 (cytotoxic dose for 50% of the cells) by the EC50 (antiviral activity for 50% of the cells). The tables in the above experimental part list the category to which each of the prepared compounds belong: Compounds belonging to activity category “A” have a pEC50 (-log of EC50 when expressed in molar units) equal to or more than 7. Compounds belonging to activity category “B” have a pEC50 value between 6 and 7.
Automated tetrazolium-based colorimetric assays were used for determination of EC50 and CC50 of test compounds. Flat-bottom, 96-well plastic microtiter trays were filled with 180 μl of Eagle's Basal Medium, supplemented with 5% FCS (0% for FLU) and 20 mM Hepes buffer. Subsequently, stock solutions (7.8×final test concentration) of compounds were added in 45 μl volumes to a series of triplicate wells so as to allow simultaneous evaluation of their effects on virus- and mock-infected cells. Five five-fold dilutions were made directly in the microtiter trays using a robot system. Untreated virus controls, and HeLa cell controls were included in each test. Approximately 100 TCID50 of Respiratory Syncytial Virus was added to two of the three rows in a volume of 50 μl. The same volume of medium was added to the third row to measure the cytotoxicity of the compounds at the same concentrations as those used to measure the antiviral activity. After two hours of incubation, a suspension (4×10^5 cells/ml) of HeLa cells was added to all wells in a volume of 50 μl. The cultures were incubated at 37° C. in a 5% CO2 atmosphere. Seven days after infection the cytotoxicity and the antiviral activity was examined spectrophotometrically. To each well of the microtiter tray, 25 μl of a solution of MTT (3-(4,5-dimethylthiazol-2-yl)-2,5-diphenyltetrazolium bromide) was added. The trays were further incubated at 37° C. for 2 hours, after which the medium was removed from each cup. Solubilization of the formazan crystals was achieved by adding 100 μl 2-propanol. Complete dissolution of the formazan crystals were obtained after the trays have been placed on a plate shaker for 10 min. Finally, the absorbances were read in an eight-channel computer-controlled photometer (Multiskan MCC, Flow Laboratories) at two wavelengths (540 and 690 nm). The absorbance measured at 690 nm was automatically subtracted from the absorbance at 540 nm, so as to eliminate the effects of non-specific absorption.
The percent protection against cytopathology caused by viruses (antiviral activity or EC50) achieved by tested compounds and their cytotoxicity (CC50) were both calculated from dose-response curves. The selectivity of the antiviral effect is represented by the selectivity index (SI), calculated by dividing the CC50 (cytotoxic dose for 50% of the cells) by the EC50 (antiviral activity for 50% of the cells).

[2] = protection against RSV cytopathology in HeLa cells, MTT readout seven days after infection

| SMILES | melting point | IC50 [1, 2] | IC50 ([1]; HeLa) |
| --- | --- | --- | --- |
| N#Cc1ccc(CN=c2n(Cc3ccc(C#N)cc3)c3ccccc3n2Cc2cccc3cccnc23)cc1 [Compound 2] | – | 10 nM | – |
| COC(=O)c1ccc(CN=c2n(Cc3ccc(C#N)cc3)c3ccccc3n2Cc2cccc3cccnc23)cc1 [Compound 5] | – | 15.8 nM | – |
| N#Cc1ccc(Cn2c(=NCCc3cccc(F)c3)n(Cc3cccc4cccnc34)c3ccccc32)cc1 [Compound 8] | 102 °C | 50.1 nM | – |
| N#Cc1ccc(Cn2c(=NCc3cccc(C#N)c3)n(Cc3cccc4cccnc34)c3ccccc32)cc1 [Compound 10] | – | 63.1 nM | – |
| N#Cc1ccc(Cn2c(=NCCCN3CCOCC3)n(Cc3cccc4cccnc34)c3ccccc32)cc1 [Compound 13] | 80 °C | 126 nM | – |
| COc1ccccc1CCN=c1n(Cc2ccc(C#N)cc2)c2ccccc2n1Cc1cccc2cccnc12 [Compound 14] | – | 158 nM | – |
| N#Cc1ccc(Cn2c(=NCCCN3CCCC3=O)n(Cc3cccc4cccnc34)c3ccccc32)cc1 [Compound 15] | – | 200 nM | – |
| Cc1cc(C)cc(CN=c2n(Cc3ccc(C#N)cc3)c3ccccc3n2Cc2cccc3cccnc23)c1 [Compound 16] | 142 °C | – | 251 nM |
| N#Cc1ccc(Cn2c(=NCCC(c3ccccc3)c3ccccc3)n(Cc3cccc4cccnc34)c3ccccc32)cc1 [Compound 18] | 184 °C | 316 nM | – |
| N#Cc1ccc(Cn2c(=NC(=O)c3cccc(Cl)c3)n(Cc3cccc4cccnc34)c3ccccc32)cc1 [Compound 19] | 160 °C | 316 nM | – |
| Cc1cccc(C(=O)N=c2n(Cc3ccc(C#N)cc3)c3ccccc3n2Cc2cccc3cccnc23)c1 [Compound 20] | 158 °C | 398 nM | – |
| N#Cc1ccc(Cn2c(=NC(=O)c3ccc(Cl)cc3)n(Cc3cccc4cccnc34)c3ccccc32)cc1 [Compound 21] | 154 °C | 398 nM | – |
| N#Cc1ccc(Cn2c(=NC(=O)c3cccc([N+](=O)[O-])c3)n(Cc3cccc4cccnc34)c3ccccc32)cc1 [Compound 22] | 222 °C | 631 nM | – |
| N#Cc1ccc(Cn2c(=NC(=O)c3ccc(Cl)cc3Cl)n(Cc3cccc4cccnc34)c3ccccc32)cc1 [Compound 23] | 114 °C | – | 631 nM |
| N#Cc1ccc(Cn2c(=NC(=O)c3cc(C(F)(F)F)cc(C(F)(F)F)c3)n(Cc3cccc4cccnc34)c3ccccc32)cc1 [Compound 24] | 190 °C | 794 nM | – |
| N#Cc1ccc(Cn2c(=NCCc3ccccc3)n(Cc3cccc4cccnc34)c3ccccc32)cc1 [Compound 25] | – | 2000 nM | – |

| SMILES | melting point | IC50 [1, 2] | IC50 ([1]; HeLa) |
| --- | --- | --- | --- |
| N#Cc1ccc(Cn2c(=NC(=O)c3ccc(Br)cc3)n(Cc3cccc4cccnc34)c3ccccc32)cc1 [Compound 26] | 125 °C | 10000 nM | – |
| COc1ccc(C(=O)N=c2n(Cc3ccc(C#N)cc3)c3ccccc3n2Cc2cccc3cccnc23)cc1 [Compound 27] | 150 °C | – | 20000 nM |
| N#Cc1ccc(Cn2c(=NC(=O)c3ccc([N+](=O)[O-])cc3)n(Cc3cccc4cccnc34)c3ccccc32)cc1 [Compound 28] | 196 °C | 31600 nM | – |
| N#Cc1ccc(Cn2c(=NC(=O)c3ccc(-c4ccccc4)cc3)n(Cc3cccc4cccnc34)c3ccccc32)cc1 [Compound 29] | 100 °C | 39800 nM | – |
| CC(C)Oc1ccc(C(=O)N=c2n(Cc3ccc(C#N)cc3)c3ccccc3n2Cc2cccc3cccnc23)cc1 [Compound 30] | 118 °C | 50100 nM | – |
| N#Cc1ccc(Cn2c(=NC(=O)c3ccc(C#N)cc3)n(Cc3cccc4cccnc34)c3ccccc32)cc1 [Compound 31] | 182 °C | > 100000 nM | – |
| COc1cc(C(=O)N=c2n(Cc3ccc(C#N)cc3)c3ccccc3n2Cc2cccc3cccnc23)cc(OC)c1OC [Compound 32] | 108 °C | – | > 100000 nM |
| N#Cc1ccc(Cn2c(=NC(=O)c3ccc(Oc4ccccc4)cc3)n(Cc3cccc4cccnc34)c3ccccc32)cc1 [Compound 33] | 66 °C | 100000 nM | – |
| COC(=O)c1ccc(Cn2c(=NCCCN3CCOCC3)n(Cc3cccc4cccnc34)c3ccccc32)cc1 [Compound 37] | – | 126 nM | – |
| COC(=O)c1ccc(Cn2c(=NCCC(c3ccccc3)c3ccccc3)n(Cc3cccc4cccnc34)c3ccccc32)cc1 [Compound 38] | 146 °C | 158 nM | – |
| COC(=O)c1ccc(Cn2c(=NC(=O)c3cc(C(F)(F)F)cc(C(F)(F)F)c3)n(Cc3cccc4cccnc34)c3ccccc32)cc1 [Compound 39] | 204 °C | 1580 nM | – |
| COC(=O)c1ccc(Cn2c(=NC(=O)c3ccc(Br)cc3)n(Cc3cccc4cccnc34)c3ccccc32)cc1 [Compound 40] | 131 °C | > 100000 nM | – |
| COc1ccc(CCN=c2n(Cc3ccc(C)cc3)c3ccccc3n2Cc2cccc3cccnc23)cc1 [Compound 42] | – | – | 79.4 nM |
| O=C(Cn1c(=NCCc2ccc(Br)cc2)n(Cc2cccc3cccnc23)c2ccccc21)c1ccc(Br)cc1 [Compound 52] | 120 °C | – | 631 nM |
| N#Cc1ccc(C(=O)Cn2c(=NCCc3ccc(Br)cc3)n(Cc3cccc4cccnc34)c3ccccc32)cc1 [Compound 53] | – | 2510 nM | – |
| N#Cc1ccc(Cn2c(=NCCCN3CCOCC3)n(Cc3ccc4ccccc4n3)c3ccccc32)cc1 [Compound 56] | – | 200 nM | – |

More lines, main results first:

| melting point | IC50 [1, 2] | SMILES | IC50 ([1]; HeLa) |
| --- | --- | --- | --- |
| 128 °C | – | COC(=O)c1ccc(Cn2c(=NCCc3ccc(Br)cc3)n(Cc3cccc4cccnc34)c3ccccc32)cc1 (as salt: HCl) [Compound 35] | – |
| – | 6.31 nM | N#Cc1ccc(Cn2c(=NCCc3ccc(OCCO)cc3)n(Cc3cccc4cccnc34)c3ccccc32)cc1 [Compound 1] | – |
| 160 °C | 12.6 nM | N#Cc1ccc(Cn2c(=NCCc3ccc(O)cc3)n(Cc3cccc4cccnc34)c3ccccc32)cc1 [Compound 4] | – |
| – | 31.6 nM | N#Cc1ccc(Cn2c(=NCCc3ccc(Br)cc3)n(Cc3cccc4cccnc34)c3ccccc32)cc1 [Compound 6] | – |
| 80 °C | 50.1 nM | COc1ccc(CCCN=c2n(Cc3ccc(C#N)cc3)c3ccccc3n2Cc2cccc3cccnc23)cc1 [Compound 9] | – |
| – | 79.4 nM | N#Cc1ccc(Cn2c(=NCCc3ccc(F)cc3)n(Cc3cccc4cccnc34)c3ccccc32)cc1 [Compound 11] | – |
| – | 7.94 nM | COC(=O)c1ccc(Cn2c(=NCCc3ccc(Br)cc3)n(Cc3cccc4cccnc34)c3ccccc32)cc1 [Compound 35] | – |
| 89 °C | 79.4 nM | COC(=O)c1ccc(Cn2c(=NCCc3cccc(F)c3)n(Cc3cccc4cccnc34)c3ccccc32)cc1 [Compound 36] | – |
| – | 63.1 nM | COc1ccc(CCN=c2n(Cc3ccc(OC)cc3)c3ccccc3n2Cc2cccc3cccnc23)cc1 [Compound 41] | – |
| 80 °C | 79.4 nM | COC(=O)c1cccc(Cn2c(=NCCc3ccc(Br)cc3)n(Cc3cccc4cccnc34)c3ccccc32)c1 [Compound 43] | – |
| 87 °C | 79.4 nM | COc1ccc(Cn2c(=NCCc3ccc(Br)cc3)n(Cc3cccc4cccnc34)c3ccccc32)cc1 [Compound 44] | – |
| – | 100 nM | COc1ccc(CCN=c2n(Cc3ccc(Br)cc3)c3ccccc3n2Cc2cccc3cccnc23)cc1 [Compound 45] | – |
| 250 °C | 100 nM | COc1ccc(CCN=c2n(Cc3ccc(Cl)cc3)c3ccccc3n2Cc2cccc3cccnc23)cc1 [Compound 46] | – |
| – | 158 nM | COc1ccc(CCN=c2n(Cc3ccc(F)cc3)c3ccccc3n2Cc2cccc3cccnc23)cc1 [Compound 47] | – |
| – | 200 nM | CCOc1ccc(CCn2c(=NCCc3ccc(OC)cc3)n(Cc3cccc4cccnc34)c3ccccc32)cc1 [Compound 48] | – |
| – | 251 nM | COc1ccc(CCN=c2n(Cc3cccc(Cl)c3)c3ccccc3n2Cc2cccc3cccnc23)cc1 [Compound 49] | – |
| 152 °C | 316 nM | COc1ccc(C(=O)Cn2c(=NCCc3ccc(Br)cc3)n(Cc3cccc4cccnc34)c3ccccc32)cc1 [Compound 50] | – |
| – | 501 nM | CCOc1ccc(CCn2c(=NCCc3ccc(Br)cc3)n(Cc3cccc4cccnc34)c3ccccc32)cc1 [Compound 51] | – |
